Reference: patent US20040063670A1, “Use of bisphosphonates for pain treatment” (priority 2000, published 2004)

Columns and labels:
Format in all cases: in vivo
[1] = system: rat model of neuropathic pain; experiment: Neuropathic mechanical hyperalgesia (partial ligation of the left sciatic nerve)
Method: Mechanical hyperalgesia was examined in a rat model of neuropathic pain induced by partial ligation of the left sciatic nerve. Approximately 14 days following surgery mechanical withdrawal thresholds of both the ligated (ipsilateral) and non-ligated (contralateral) paw were measured prior to (predose) and then from 10 min to 6 h following drug or vehicle administration. Reversal of hyperalgesia at each time point was calculated according to the formula: [formula]
(§1) All experiments were carried out using groups of 6 animals. Stock concentrations of drugs were dissolved in distilled water and subsequent dilutions were made in 0.9% saline for subcutaneous administration in a volume of 4 mlkg^−1. All drugs were made up in plastic vials and kept in the dark.
(§2) Statistical analysis was carried out on withdrawal threshold readings (g) using ANOVA with repeated measures followed by Tukey's HSD test. Efficacy refers to the maximal reversal of hyperalgesia observed at the doses used.

[2] = system: rat model of inflammatory pain; experiment: Inflammatory mechanical hyperalgesia (FCA, Randal-Sellito paw withdrawal threshold); details: for maximal reversal of mechanical hyperalgesia: ipsilateral paw, 24 h after FCA
Method: Mechanical hyperalgesia was examined in a rat model of inflammatory pain. Paw withdrawal thresholds to an increasing pressure stimulus were measured by the Randal-Sellito technique using an analgesymeter (Ugo Basile, Milan), in naïve animals prior to an intraplantar injection of complete Freund's complete adjuvant (FCA) into the left hind paw. 24 h later paw withdrawal thresholds were measured again prior to (predose) and then from 10 min to 6 h following drug or vehicle administration. Reversal of hyperalgesia in the ipsilateral paw was calculated according to the formula: [formula]
as §1, §2

[3] = system: rat model of bone cancer pain; experiment: Rat model of bone cancer pain (intra-tibial MRMZ1 mammary gland carcinoma cells)
Method: Adult female rats were given intra-tibial injections of MRMZ1 rat mammary gland carcinoma cells (3 μl, 10^7 cells/ml). These animals gradually developed mechanical hyperalgesia, mechanical allodynia (skin sensitivity to non-noxious stimuli) and hind limb sparing, beginning on day 12-14 following cell injection.

[4] = 10 and 30 μg/kg s.c. 3 times a week from the day of cell injection

## O=P(O)(O)C(O)(Cn1ccnc1)P(=O)(O)O [Zoledronate, 1-hydroxy-2-(imidazol-1-yl)ethane-1,1-diphosphonic acid]
[1]; 0.003-0.1 mgkg^−1 s.c.
  time to maximal reversal of mechanical hyperalgesia: ≤ 30 min
[1]; 0.003-0.1 mgkg^−1 s.c., about 14 days after surgery
  reversal of mechanical hyperalgesia (maximal): 40%
[1]; highest dose of 0.003-0.1 mgkg^−1 s.c.
  contralateral paw withdrawal thresholds: significant reduction
[2]; 0.003-0.1 mgkg^−1 s.c.
  time to maximal reversal of mechanical hyperalgesia: ≤ 30 min
  maximal reversal of mechanical hyperalgesia: 100%
[2]; 0.003-0.1 mgkg^−1 s.c., 3 h after administration
  activity 3 h following administration (duration): no significant activity
[2]; 0.003-0.1 mgkg^−1 s.c., listed as zoledronic acid
  maximal reversal of mechanical hyperalgesia: about 100%
[2]; highest dose of 0.003-0.1 mgkg^−1 s.c., contralateral paw
  contralateral activity: Some contralateral activity
[3]; [4]
  hind limb sparing: profound inhibition
  mechanical allodynia: profound inhibition
[3]; higher dose (30 μg/kg s.c. 3 times a week), 19 days following intra-tibial cell injection
  development of hind limb sparing over 19 days: did not develop any sign of hind limb sparing
[3]; single injection 100 μg/kg s.c. on day 19
  acute effect of a single injection: no acute effect

## CN1CC[C@]23c4c5ccc(O)c4O[C@H]2[C@@H](O)C=C[C@H]3[C@H]1C5 [morphine]
[3]; acute treatment, 1-10 mg/kg s.c.
  mechanical allodynia: dose dependent reduction
[3]; acute treatment, highest dose only (of 1-10 mg/kg s.c.)
  hind limb sparing: significant reduction

## NCCC(O)(P(=O)(O)O)P(=O)(O)O [Pamidronate, 3-amino-1-hydroxypropane-1,1-diphosphonic acid]
[1]; 0.03-1 mgkg^−1 s.c.
  contralateral paw withdrawal thresholds: some reductions
  maximal reversal of hyperalgesia: 20%
[2]; 0.03-1 mgkg^−1 s.c.
  reversing inflammatory mechanical hyperalgesia: ineffective
[2]; highest dose tested of 0.03-1 mgkg^−1 s.c.
  paw withdrawal thresholds: slight reductions

## O=P(O)(O)C(Cl)(Cl)P(=O)(O)O [Clodronate, 1,1-dichloromethane-1,1-diphosphonic acid]
[1]; 0.3-10 mgkg^−1 s.c.
  activity in the model of neuropathic pain (reversal of hyperalgesia): inactive
  contralateral paw withdrawal thresholds: some reductions
[2]; 0.3-10 mgkg^−1 s.c.
  reversing inflammatory mechanical hyperalgesia: ineffective
[2]; highest dose tested of 0.3-10 mgkg^−1 s.c.
  paw withdrawal thresholds: slight reductions
